Experimental data reported in PubChem BioAssay (NCI).
Values joined by “and” are separate entries in the source; they are usually repeats but may differ in a detail not shown here. Equal values may be shown once.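 Tested at 5 concentrations; 48 h exposure; 96-well plates; endpoints linearly interpolated, else capped at highest concentration. At the GI50, growth is halved. TGI marks complete inhibition of growth.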

Tests used:
Assay in all cases: inhibition of tumour cell growth, NCI panel, 48 h
DLD-1 colon = system: DLD-1 colon
HOP-18 NSCLC = system: HOP-18 NSCLC
LXFL 529 NSCLC = system: LXFL 529 NSCLC
RXF-631 renal = system: RXF-631 renal
HS 578T breast = system: HS 578T breast
MDA-MB-231 breast = system: MDA-MB-231 breast
MDA-N = system: MDA-N
PC-3 prostate = system: PC-3 prostate
T-47D breast = system: T-47D breast

| Structure (SMILES) | TGI (DLD-1 colon) | TGI (HOP-18 NSCLC) | TGI (LXFL 529 NSCLC) | TGI (RXF-631 renal) [µM] | also measured |
| --- | --- | --- | --- | --- | --- |
| CCN(CC)CC(=O)N1CCc2c([nH]c3ccccc23)C1c1cccnc1 (stereo not drawn) | > 100 µM | > 100 µM | > 100 µM | > 100 | – |
| C[n+]1c2ccccc2cc2c(CNC(CCCN=C(N)N)C(=O)O)cccc21 (stereo not drawn) | 1.32 µM and 1.74 µM | 15.5 µM | 2.12 µM and 2.14 µM | 12.6 | GI50 (DLD-1 colon): 0.481 µM; GI50 (LXFL 529 NSCLC): 0.659 µM |
| CC1(C)CC[C@H](C2=CC(=O)c3c(O)ccc(O)c3C2=O)O1 | – | 3.39 µM and 3.15 µM and 0.703 µM | – | 3.98 | GI50 (HOP-18 NSCLC): 1.83 µM and 1.72 µM and 0.265 µM; TGI (HS 578T breast): 6.78 µM and 7.42 µM; TGI (MDA-MB-231 breast): 2.79 µM and 8.31 µM; TGI (MDA-N): 1.6 µM and 3.78 µM; TGI (PC-3 prostate): 7.34 µM and 4.16 µM; TGI (T-47D breast): 1.35 µM and 2.63 µM |
| CC/C(=N\NS(=O)(=O)c1ccccc1)c1ccccc1 | > 100 µM | > 100 µM | > 100 µM | > 100 | – |
| Cl[Si]1(Cl)Oc2ccccc2O[Si](Cl)(Cl)Oc2ccccc2O1 | > 100 µM | – | – | > 100 | – |
| CSc1c(C)c(C)nn1-c1ccccc1 | > 100 µM | – | > 100 µM | > 100 | – |
| CC(=O)N(C(C)=O)C1=C2c3ccccc3N(S(=O)(=O)c3ccccc3)C2n2c(=O)n(-c3ccccc3)c(=O)n2C1 (stereo not drawn) | > 100 µM | 86.4 µM | > 100 µM | – | – |
| O=C/C(=C(/Cl)c1ccc(O)cc1)c1ccccc1 | > 60.1 µM | > 31.6 µM | 59.9 µM | > 31.6 | – |
| C=CCC1[C@@H](C(C)(C)C(C(C)=O)C(=O)C(=O)OC)OC(C(C)(C)C)N1C(=O)OC (stereo partly drawn) | > 100 µM | > 100 µM | – | > 100 | – |
| CC(CC(=O)Nc1ccc(NC(=O)CC(C)N=NC(N)=S)cc1)N=NC(N)=S (stereo not drawn) | > 100 µM | > 100 µM | > 100 µM | > 100 | – |
| C#CCC(N)(CO)C(=O)O (stereo not drawn) | > 100 µM | > 100 µM | > 100 µM | – | – |
| CC(=O)[CH-]C(C)=O.[CH2-]C.[CH2-]C.[Tl+3] | > 100 µM | > 100 µM | > 100 µM | – | GI50 (DLD-1 colon): > 100 µM; GI50 (HOP-18 NSCLC): > 100 µM; GI50 (LXFL 529 NSCLC): > 100 µM |
| Cc1ccc(S(=O)(=O)N/N=C(\c2nc3ccc([N+](=O)[O-])cc3[nH]c2=O)C(O)c2ccccc2Cl)cc1 (stereo not drawn) | > 100 µM | > 100 µM | > 100 µM | > 100 | – |
| COc1ccc(Nc2nc3ccccc3nc2-c2cccs2)cc1 | > 100 µM | > 100 µM | > 100 µM | – | – |
| Cc1ccccc1Nc1nc2c(s1)C(=O)c1ccccc1C2=O | 13.6 µM | 24.9 µM | 14.8 µM | – | TGI (MDA-MB-231 breast): 15 µM; TGI (MDA-N): 3.37 µM; TGI (PC-3 prostate): 7.95 µM; TGI (T-47D breast): 27.5 µM |
| CC1(c2ccccc2)CC(c2ccccc2)=NO1 (stereo not drawn) | > 100 µM | > 100 µM | > 100 µM | – | – |
| CC(C)c1ccccc1NC(=O)/C(Cl)=C1/Sc2ccccc2NC1=O | > 100 µM | – | > 100 µM | > 100 | – |
| NC(N)=NS(=O)(=O)c1ccc(NC(=O)c2cccc3c(Nc4ccc(S(N)(=O)=O)cc4)c4ccccc4nc23)cc1 | > 100 µM | > 100 µM | > 100 µM | – | – |
| O=c1c(Cl)c(Cl)cnn1CCc1ccncc1 | 30.4 µM | 34.2 µM | 29.8 µM | – | – |
| CNC(SC)=C1C(=O)OC(C)(C)OC1=O | 54.2 µM | > 100 µM | > 100 µM | – | – |
| NC(=O)/C=C/C(=O)O | > 5000 µM | > 5000 µM | > 5000 µM | – | – |
| CC(=O)[O-].CC(=O)[O-].CC(=O)[O-].CC(=O)[O-].[Mo+2].[Mo+2] | > 100 µM | > 100 µM | > 100 µM | – | GI50 (DLD-1 colon): > 100 µM; GI50 (HOP-18 NSCLC): > 100 µM; GI50 (LXFL 529 NSCLC): > 100 µM |
| CCCCCCCCCCCCCC(=O)OCC1OC(=O)CC1O (stereo not drawn) | > 100 µM | 67.3 µM | > 100 µM | > 100 | – |
| COC(=O)/C(C#N)=C1\CCC(C(=O)OC)N1C (stereo not drawn) | > 100 µM | – | – | > 100 | – |
| CC(=O)OCC1OC(n2cc([N+](=O)[O-])c(=O)[nH]c2=O)C(OC(C)=O)C(OC(C)=O)C1OC(C)=O (stereo not drawn) | > 100 µM | > 100 µM | > 100 µM | – | – |
| COc1c(Br)cc(Br)c(OC)c1-c1[nH]c(Br)c(Br)c1Br | 18.4 µM | 9.05 µM | – | 21.9 | – |
| Cc1nnc(N/N=C(/C(=O)C(C#N)c2ccccc2)C(C#N)c2ccccc2)n1N (stereo not drawn) | 59.9 µM | 28.6 µM | 10.6 µM | – | – |
